Values of other authors, collected in patent US8465912B2, “Methods for the identification of agents that inhibit mesenchymal-like tumor cells or their formation” (OSI Pharmaceuticals, LLC, priority 2009, dated 2013).

Assays:
[1] = tested on: carcinoma cells; details: cited from earlier work
[2] = tested on: pancreatic cancer; details: in combination with gemcitabine; cited from earlier work
[3] = tested on: advanced, treatment-refractory NSCLC; details: patients with advanced; cited from earlier work

C#Cc1cccc(Nc2ncnc3cc(OCCOC)c(OCCOC)cc23)c1 [erlotinib, [6,7-bis(2-methoxyethoxy)-4-quinazolin-4-yl]-(3-ethynylphenyl) amine]
Cellular sensitivity after EMT-like transition [1]: cellular insensitivity | Survival, phase III first-line [2]: improves survival | Clinical outcome, phase III monotherapy [3]: significantly prolonged survival, delayed disease progression and delayed worsening of lung cancer-related symptoms
